The text below walks through data of patent US11242337B2, “Compounds useful for treating gastrointestinal tract disorders” (Ardelyx, Inc., priority 2017, dated 2022).

The assay addresses T1, NHE3 (Homo sapiens, UniProt P48764).
T1 construct: expressed in transfected cells
T1 sequence (P48764 26-834): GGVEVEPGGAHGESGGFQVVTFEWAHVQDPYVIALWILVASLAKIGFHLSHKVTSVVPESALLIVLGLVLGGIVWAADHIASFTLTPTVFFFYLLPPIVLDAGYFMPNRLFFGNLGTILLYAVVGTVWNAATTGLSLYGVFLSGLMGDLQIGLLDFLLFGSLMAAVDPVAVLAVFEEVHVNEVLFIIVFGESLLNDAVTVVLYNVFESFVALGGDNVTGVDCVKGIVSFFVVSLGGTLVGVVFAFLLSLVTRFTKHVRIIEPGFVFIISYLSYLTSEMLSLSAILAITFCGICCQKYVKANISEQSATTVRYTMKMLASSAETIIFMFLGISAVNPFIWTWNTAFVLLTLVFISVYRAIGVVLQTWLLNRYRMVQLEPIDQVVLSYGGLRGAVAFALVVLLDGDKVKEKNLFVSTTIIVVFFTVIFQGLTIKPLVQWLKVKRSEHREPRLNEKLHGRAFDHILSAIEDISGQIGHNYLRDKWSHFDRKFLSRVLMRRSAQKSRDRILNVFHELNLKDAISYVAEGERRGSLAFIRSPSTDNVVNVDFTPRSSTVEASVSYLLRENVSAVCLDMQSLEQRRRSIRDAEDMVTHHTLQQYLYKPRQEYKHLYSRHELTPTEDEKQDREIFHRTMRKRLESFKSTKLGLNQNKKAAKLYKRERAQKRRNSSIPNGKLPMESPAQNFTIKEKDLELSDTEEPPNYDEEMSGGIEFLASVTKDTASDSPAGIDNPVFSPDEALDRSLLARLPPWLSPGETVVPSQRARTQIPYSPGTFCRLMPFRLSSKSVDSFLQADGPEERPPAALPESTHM
T1 sequence (Q99653 2-195 partner limits assumed): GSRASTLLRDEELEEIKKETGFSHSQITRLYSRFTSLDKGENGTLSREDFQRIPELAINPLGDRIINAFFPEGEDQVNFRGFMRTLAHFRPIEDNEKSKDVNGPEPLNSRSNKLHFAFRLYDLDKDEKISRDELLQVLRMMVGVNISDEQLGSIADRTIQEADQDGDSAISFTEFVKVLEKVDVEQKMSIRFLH
Kind of assay: Cell-based assay of NHE-3 activity (pre-incubation inhibition), human. The note with it: human Preincubation; for pIC50: 0-30 μM test compound. The gist of the method:
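PS120 fibroblasts stably expressing human NHE3 and NHERF2, loaded 30 min at 37 °C with 5 μM BCECF-AM in NH4Cl buffer, then acidified 10 min at room temperature in Na+-free buffer with 0–30 μM compound. Initial rate of BCECF fluorescence ratio change (FLIPR) per minute taken as Na+/H+ activity.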

SMILES strings stand for the structures.

For the molecule `Cc1cc(Cl)cc2c1C[C@H](N1CCC[C@@H](N(C)C)C1)[C@H]2Oc1ccc(S(=O)(=O)NCCOCCOCCNC(=O)NCCCCNC(=O)NCCOCCOCCNS(=O)(=O)c2ccc(O[C@H]3c4cc(Cl)cc(C)c4C[C@@H]3N3CCC[C@@H](N(C)C)C3)c(F)c2)cc1F` [Example 30, 3-[2-(2-[2-[(4-[[(1S,2S)-6-Chloro-2-[(3R)-3-(dimethylamino)piperidin-1-yl]-4-methyl-2,3-dihydro-1H-inden-1-yl]oxy]-3-fluorobenzene)sulfonamido]ethoxy]ethoxy)ethyl]-1-[4-([[2-(2-[2-[(4-[[(1S,2S)-6-chloro-2-[(3R)-3-(dimethylamino)piperidin-1-yl]-4-methyl-2,3-dihydro-1H-inden-1-yl]oxy]-3-fluorobenzene)sulfonamido]ethoxy]ethoxy)ethyl]carbamoyl]amino)butyl]urea; bis(trifluoroacetic acid)], the “% inhibition” value was “C (>70%)” and the pIC50 result was “C (NHE3 pIC50 > 7)”.

In the case of `Cc1cc(S(=O)(=O)N[C@@H]2CCN(CCOCCNC(=O)NCCCCNC(=O)NCCOCCN3CC[C@@H](NS(=O)(=O)c4ccc(O[C@H]5c6cc(Cl)cc(Cl)c6C[C@@H]5N(C)C)c(C)c4)C3)C2)ccc1O[C@H]1c2cc(Cl)cc(Cl)c2C[C@@H]1N(C)C` [Example 53, 3-(2-[2-[(3R)-3-[(4-[[(1S,2S)-4,6-Dichloro-2-(dimethylamino)-2,3-dihydro-1H-inden-1-yl]oxy]-3-methylbenzene)sulfonamido]pyrrolidin-1 yl]ethoxy]ethyl)-1-(4-[[(2-[2-[(3R)-3-[(4-[[(1S,2S)-4,6-dichloro-2-(dimethylamino)-2,3-dihydro-1H-inden-1-yl]oxy]-3-methylbenzene)sulfonamido]pyrrolidin-1-yl]ethoxy]ethyl)carbamoyl]amino]butyl)urea], the “% inhibition” value is “C (>70%)” and the pIC50 result is reported as “C (NHE3 pIC50 > 7)”.

`Cc1cc(O[C@H]2c3cc(Cl)cc(Cl)c3C[C@@H]2N(C)C)c(F)cc1S(=O)(=O)NCCOCCOCCNC(=O)NCCCCNC(=O)NCCOCCOCCNS(=O)(=O)c1cc(F)c(O[C@H]2c3cc(Cl)cc(Cl)c3C[C@@H]2N(C)C)cc1C` [Example 88, 3-[2-(2-[2-[(4-[[(1S,2S)-4,6-Dichloro-2-(dimethylamino)-2,3-dihydro-1H-inden-1-yl]oxy]-5-fluoro-2-methylbenzene)sulfonamido]ethoxy]ethoxy)ethyl]-1-[4-([[2-(2-[2-[(4-[[(1S,2S)-4,6-dichloro-2-(dimethylamino)-2,3-dihydro-1H-inden-1-yl]oxy]-5-fluoro-2-methylbenzene)sulfonamido]ethoxy]ethoxy)ethyl]carbamoyl]amino)butyl]urea]: the “% inhibition” value is reported as “C (>70%)” and the pIC50 result was “C (NHE3 pIC50 > 7)”.

For `N#Cc1cc(Cl)cc2c1C[C@H](N1CCNCC1)[C@H]2Oc1ccc(S(=O)(=O)N2CCC(NC(=O)CCCNC(=O)NCCCCNC(=O)NCCCC(=O)NC3CCN(S(=O)(=O)c4ccc(O[C@H]5c6cc(Cl)cc(C#N)c6C[C@@H]5N5CCNCC5)cc4)CC3)CC2)cc1` [Example 120, N^1,N^18-Bis(1-([4-([(1S,2S)-6-chloro-4-cyano-2-(piperazin-1-yl)-2,3-dihydro-1H-inden-1-yl]oxy)phenyl]sulfonyl)piperidin-4-yl)-6,13-dioxo-5,7,12,14-tetraazaoctadecanediamide], the “% inhibition” value is “C (>70%)” and the pIC50 entry is reported as “C (NHE3 pIC50 > 7)”.

On to `C[C@@H]1CN([C@H]2Cc3c(C#N)cc(Cl)cc3[C@@H]2Oc2ccc(S(=O)(=O)N[C@H]3CCN(CCOCCNC(=O)NCCCCNC(=O)NCCOCCN4CC[C@H](NS(=O)(=O)c5ccc(O[C@H]6c7cc(Cl)cc(C#N)c7C[C@@H]6N6CCN[C@H](C)C6)cc5)C4)C3)cc2)CCN1` [Example 132, 4-([(1S,2S)-6-Chloro-4-cyano-2-[(R)-3-methylpiperazin-1-yl]-2,3-dihydro-1H-inden-1-yl]oxy)-N—[(S)-1-(20-[(S)-3-([4-([(1S,2S)-6-chloro-4-cyano-2-[(R)-3-methylpiperazin-1-yl]-2,3-dihydro-1H-inden-1-yl]oxy)phenyl]sulfonamido)pyrrolidin-1-yl]-7,14-diaxo-3,18-dioxa-5,8,13,15-tetraazaicosyl)pyrrolidin-3-yl]benzenesulfonamide; bis(trifluoroacetic acid)], for which the “% inhibition” value is given as “C (>70%)” and the pIC50 entry is “C (NHE3 pIC50 > 7)”.

As for `C[C@@H]1CN([C@H]2Cc3c(C#N)cc(Cl)cc3[C@@H]2Oc2ccc(S(=O)(=O)N[C@@H]3CCN(CCOCCNC(=O)NCCCCNC(=O)NCCOCCN4CC[C@@H](NS(=O)(=O)c5ccc(O[C@H]6c7cc(Cl)cc(C#N)c7C[C@@H]6N6CCN[C@H](C)C6)cc5)C4)C3)cc2)CCN1` [Example 133, 4-([(1S,2S)-6-Chloro-4-cyano-2-[(R)-3-methylpiperazin-1-yl]-2,3-dihydro-1H-inden-1-yl]oxy)-N—[(R)-1-(20-[(R)-3-([4-([(1S,2S)-6-chloro-4-cyano-2-[(R)-3-methylpiperazin-1-yl]-2,3-dihydro-1H-inden-1-yl]oxy)phenyl]sulfonamido)pyrrolidin-1-yl]-7,14-dioxo-3,18-dioxa-6,8,13,15-tetraazaicosyl)pyrrolidin-3-yl]benzenesulfonamide; bis(trifluoroacetic acid)], the “% inhibition” value is recorded as “C (>70%)” and the pIC50 entry is “C (NHE3 pIC50 > 7)”.

Take `N#Cc1cc(Cl)cc2c1C[C@H](N1CCNCC1)[C@H]2Oc1ccc(S(=O)(=O)N[C@H]2CCN(C(=O)CCCNC(=O)NCCCCNC(=O)NCCCC(=O)N3CC[C@H](NS(=O)(=O)c4ccc(O[C@H]5c6cc(Cl)cc(C#N)c6C[C@@H]5N5CCNCC5)cc4)C3)C2)cc1` [Example 143, 4-([(1S,2S)-6-Chloro-4-cyano-2-(piperazin-1-yl)-2,3-dihydro-1H-inden-1-yl]oxy)-N—[(S)-1-(18-[(S)-3-([4-([(1S,2S)-6-chloro-4-cyano-2-(piperazin-1-yl)-2,3-dihydro-1H-inden-1-yl]oxy)phenyl]sulfonamido)pyrrolidin-1-yl]-6,13,18-trioxo-5,7,12,14-tetraazaoctadecanoyl)pyrrolidin-3-yl]benzenesulfonamide]: the “% inhibition” value is listed as “C (>70%)” and the pIC50 result was “C (NHE3 pIC50 > 7)”.
